Test results as given in patent EP0459561B1, “Dioxo-tetrahydroquinoline derivatives” (MERCK SHARP & DOHME LTD., priority 1990, dated 1991).

Molecular target: AMPA receptors
Test: Displacement of 3H-AMPA binding, rat forebrain membranes
Conditions: read-out: IC₅₀ (displacement of ³H-AMPA binding)
Method: The ability of test compounds to displace ³H-AMPA binding to rat forebrain membranes was determined by the method of Honore et al., Neurosci. Lett., 1985, 54, 27.

Work on `CCOC(=O)C1C(=O)Nc2cc([N+](=O)[O-])c([N+](=O)[O-])cc2C1=O` (stereo not shown) [Example 50, Ethyl 6,7-Dinitro-2,4-dioxo-3-(1,2,3,4-tetrahydroquinoline)carboxylate] yielded an IC50 of less than 50 µM.
